{"source": "paper PMC8375220", "about": "(Peptides, 2021)", "key": {"BALB/c mice": {"tested_on": "BALB/c mice", "assay": "In vivo toxicity after intranasal administration", "set-up": "species or system mouse", "settings": "2.5 mg/kg single intranasal dose"}, "SARS-CoV-2 spike RBD": {"target": "SARS-CoV-2 spike RBD (Severe acute respiratory syndrome coronavirus 2, UniProt P0DTC2)", "assay": "biochemical", "type": "binding"}, "[1]": {"tested_on": "SARS-CoV-2 spike pseudovirions"}, "[2]": {"tested_on": "Human umbilical vein endothelial cells (HUVECs)", "assay": "HUVEC viability", "type": "cell-based"}, "[3]": {"tested_on": "SARS-CoV-2 spike pseudovirion", "settings": "cited from earlier work"}}, "note": "Read-outs that look alike come from different tables or passages of the source. Where no end group is shown, it is not given here.", "data": [{"substance": "GKGDFRI [GK-7, GKGDFRI]", "values": [{"measurement": "effect on ALT, AST, blood urea and creatinine contents", "setting": "BALB/c mice", "result": "minor effects"}, {"measurement": "HE staining of major organs", "setting": "BALB/c mice; day 7", "result": "no pathological changes"}, {"measurement": "effect on RBC, WBC and platelet counts in the blood", "setting": "BALB/c mice; day 7", "result": "minor effects"}, {"measurement": "effect on organ index (heart, liver, spleen, lungs, kidneys)", "setting": "BALB/c mice; day 7", "result": "minor effects"}, {"measurement": "Kd", "setting": "SARS-CoV-2 spike RBD", "result": 25.1, "unit": "nM"}, {"measurement": "IC50, inhibition of SARS-CoV-2 spike pseudovirion infection", "setting": "[1]; spike pseudovirions, 12 h", "result": 2.96, "unit": "µg/mL"}, {"measurement": "HUVEC survival", "setting": "[2]; 24 h, doses up to 200 μg/mL, CCK-8", "result": "did not affect cell survival"}, {"measurement": "fold of highest non-cytotoxic dose (200 μg/mL) over pseudovirion IC50", "setting": "[2]; HUVECs 24 h versus IC50 2.96 μg/mL", "result": "approximately 68 fold"}]}, {"substance": "ACE2", "values": [{"measurement": "IC50, inhibition of SARS-CoV-2 spike pseudovirion infection", "setting": "[1]", "result": 0.067, "unit": "µg/mL"}]}, {"substance": "LL37", "values": [{"measurement": "IC50, SARS-CoV-2 spike pseudovirion infection", "setting": "[3]", "result": 4.74, "unit": "µg/mL"}]}]}
